From BindingDB's records for patent US11566007 (Revolution Medicines, 2023)
Each block holds one compound with its values, some of them ahead of it.

Legend:
Experiment in all cases: Biochemical Assay
[1] = target: GTPase KRas [G12C] (Homo sapiens, UniProt P01116, G12C)
Description: (§1) The purpose of this biochemical assay is to measure the ability of test compounds to covalently label nucleotide-loaded K-Ras isoforms. […] Analysis of raw data may be carried out using Waters MassLynx MS software, with % bound calculated from the deconvoluted protein peaks for labeled and unlabeled K-Ras.

[2] = target: GTPase KRas [Q61H] (Homo sapiens, UniProt P01116, Q61H)
Description: as §1

[3] = target: GTPase NRas [G12C] (Homo sapiens, UniProt P01111, G12C)
[4] = target: GTPase NRas (Homo sapiens, UniProt P01111)
[5] = target: GTPase NRas [Q61R] (Homo sapiens, UniProt P01111, Q61R)
[6] = target: GTPase KRas (Homo sapiens, UniProt P01116)
Description: as §1

[7] = target: GTPase KRas [G12S] (Homo sapiens, UniProt P01116, G12S)
Description: as §1

[8] = target: GTPase NRas [Q61K] (Homo sapiens, UniProt P01111, Q61K)
[9] = target: GTPase KRas [G13C] (Homo sapiens, UniProt P01116, G13C)
Description: as §1

[10] = target: GTPase KRas [G12V] (Homo sapiens, UniProt P01116, G12V)
Description: as §1

[11] = target: GTPase KRas [G12D] (Homo sapiens, UniProt P01116, G12D)
Description: as §1

Chain of GTPase KRas (P01116 whole entry): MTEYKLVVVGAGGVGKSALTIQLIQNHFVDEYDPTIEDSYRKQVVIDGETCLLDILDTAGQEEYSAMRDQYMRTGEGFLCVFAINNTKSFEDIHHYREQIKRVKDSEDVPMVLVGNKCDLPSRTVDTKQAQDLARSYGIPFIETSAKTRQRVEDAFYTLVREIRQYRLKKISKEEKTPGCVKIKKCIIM
Chain of GTPase NRas [G12C] (P01111 whole entry G12C): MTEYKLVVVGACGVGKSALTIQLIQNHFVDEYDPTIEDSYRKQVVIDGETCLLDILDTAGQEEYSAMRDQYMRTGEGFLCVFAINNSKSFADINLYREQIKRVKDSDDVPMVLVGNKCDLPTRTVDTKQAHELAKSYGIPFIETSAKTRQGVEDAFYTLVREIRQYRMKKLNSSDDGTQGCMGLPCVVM
Chain of GTPase NRas (P01111 whole entry): as the sequence (P01111 whole entry G12C) above, with C12G counted along it
Chain of GTPase KRas [Q61H] (P01116 whole entry Q61H): as the sequence (P01116 whole entry) above, with Q61H counted along it
Chain of GTPase NRas [Q61R] (P01111 whole entry Q61R): as the sequence (P01111 whole entry G12C) above, with C12G, Q61R counted along it
Chain of GTPase KRas [G13C] (P01116 whole entry G13C): as the sequence (P01116 whole entry) above, with G13C counted along it
Chain of GTPase KRas [G12C] (P01116 whole entry G12C, canonical isoform): as the sequence (P01116 whole entry) above, with G12C counted along it
Chain of GTPase NRas [Q61K] (P01111 whole entry Q61K): as the sequence (P01111 whole entry G12C) above, with C12G, Q61K counted along it
Chain of GTPase KRas [G12S] (P01116 whole entry G12S): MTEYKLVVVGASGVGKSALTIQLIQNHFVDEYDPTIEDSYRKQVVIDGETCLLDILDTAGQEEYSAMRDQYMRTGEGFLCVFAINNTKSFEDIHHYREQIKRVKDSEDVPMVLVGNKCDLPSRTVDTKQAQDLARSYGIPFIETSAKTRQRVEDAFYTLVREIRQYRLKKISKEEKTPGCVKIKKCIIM
Chain of GTPase KRas [G12V] (P01116 whole entry G12V): as the sequence (P01116 whole entry) above, with G12V counted along it
Chain of GTPase KRas [G12D] (P01116 whole entry G12D): as the sequence (P01116 whole entry) above, with G12D counted along it

Structure (SMILES): C=CC(=O)N1CC[C@H](C(=O)N(C)[C@H](C(=O)N[C@H]2Cc3cc(O)cc(c3)-c3ccc4c(c3)c(c(-c3c(F)cccc3CCOC)n4CC)CC(C)(C)COC(=O)[C@@H]3CCCN(N3)C2=O)C(C)C)C1 [US11566007, Example A25]
IC50 [1]: in the range around 550 nM
IC50 [4]: in the range around 5500 nM
IC50 [5]: > 10000 nM

Structure (SMILES): C=CC(=O)N1CC[C@H](C(=O)N(C)[C@H](C(=O)N[C@H]2Cc3cc(O)cc(c3)-c3ccc4c(c3)c(c(-c3ccccc3COC)n4CC)CC(C)(C)COC(=O)[C@@H]3CCCN(N3)C2=O)C2CCCC2)C1 [US11566007, Example A27]
IC50 [6]: in the range around 5500 nM
IC50 [1]: in the range around 55 nM

Structure (SMILES): CCn1c(-c2ccccc2CCOC)c2c3cc(ccc31)-c1cc(O)cc(c1)C[C@H](NC(=O)[C@H](C(C)C)N(C)C(=O)[C@H]1CCN(C(=O)C#CCN(C)C)C1)C(=O)N1CCC[C@H](N1)C(=O)OCC(C)(C)C2 [US11566007, Example A38]
IC50 [7]: 1000 to 10000 nM
IC50 [3]: < 10 nM

Structure (SMILES): C=CC(=O)N1CC[C@H](C(=O)N(C)[C@H](C(=O)N[C@H]2Cc3cc(O)cc(c3)-c3cc(F)c4c(c3)c(c(-c3ccccc3CCOC)n4CC)CC(C)(C)COC(=O)[C@@H]3CCCN(N3)C2=O)C(C)C)C1 [US11566007, Example A53]
IC50 [1]: in the range around 550 nM
IC50 [8]: > 10000 nM

Structure (SMILES): C=CC(=O)N1CC[C@H](C(=O)N(C)[C@H](C(=O)N[C@H]2Cc3cc(O)cc(c3)-c3ccc4c(c3)c(c(-c3cccnc3N3CC(OC)C3)n4CC)CC(C)(C)COC(=O)[C@@H]3CCCN(N3)C2=O)C(C)C)C1 [US11566007, Example A60]
IC50 [1]: in the range around 550 nM
IC50 [5]: > 10000 nM

Structure (SMILES): C=CC(=O)N1CC[C@H](C(=O)N(C)[C@H](C(=O)N[C@H]2Cc3cc(O)cc(c3)-c3ccc4c(c3)c(c(C3=C(COC)CCCC3)n4CC)CC(C)(C)COC(=O)[C@@H]3CCCN(N3)C2=O)C(C)C)C1 [US11566007, Example A64]
IC50 [9]: in the range around 5500 nM
IC50 [1]: in the range around 55 nM
IC50 [5]: in the range around 5500 nM

Structure (SMILES): C=CC(=O)N1CC[C@H](C(=O)N(C)[C@H](C(=O)N[C@H]2Cc3cc(O)cc(c3)-c3ccc4c(c3)c(c(-c3c(CCOC)cccc3OC)n4CC)CC(C)(C)COC(=O)[C@@H]3CCCN(N3)C2=O)C(C)C)C1 [US11566007, Example A80]
IC50 [1]: in the range around 550 nM
IC50 [5]: > 10000 nM

Structure (SMILES): C=CC(=O)N1CC[C@H](C(=O)N(C)[C@H](C(=O)N[C@H]2Cc3cc(O)cc(c3)-c3ccc4c(c3)c(c(-c3cc(F)cnc3COC)n4CC)CC(C)(C)COC(=O)[C@@H]3CCCN(N3)C2=O)C(C)C)C1 [US11566007, Example A82]
IC50 [10]: in the range around 550 nM

Structure (SMILES): C=CC(=O)N1CC[C@H](C(=O)N(C)[C@H](C(=O)N[C@H]2Cc3cc(O)cc(c3)-c3ccc4c(c3)c(c(-c3nccnc3COC)n4CC)CC(C)(C)COC(=O)[C@@H]3CCCN(N3)C2=O)C(C)C)C1 [US11566007, Example A85]
IC50 [4]: > 10000 nM

Structure (SMILES): C=CC(=O)N1CC[C@H](C(=O)N(C)[C@H](C(=O)N[C@H]2Cc3cc(O)cc(c3)-c3ccc4c(c3)c(c(-c3ccncc3)n4C(C)(C)C#N)CC(C)(C)COC(=O)[C@@H]3CCCN(N3)C2=O)C(C)C)C1 [US11566007, Example A86]
IC50 [11]: in the range around 5500 nM
IC50 [1]: in the range around 55 nM
IC50 [2]: in the range around 550 nM

Structure (SMILES): CCn1c(-c2cnccc2COC)c2c3cc(ccc31)-c1cc(O)cc(c1)C[C@H](NC(=O)[C@H](C(C)C)N(C)C(=O)[C@H]1CCN(C(=O)C#CCN(C)C)C1)C(=O)N1CCC[C@H](N1)C(=O)OCC(C)(C)C2 [US11566007, Example A88]
IC50 [3]: < 10 nM

Structure (SMILES): C=CC(=O)N1CC[C@H](C(=O)N(C)[C@H](C(=O)N[C@H]2Cc3nc(cs3)-c3ccc4c(c3)c(c(-c3cccnc3COC)n4CC)CC(C)(C)COC(=O)[C@@H]3CCCN(N3)C2=O)C(C)C)C1 [US11566007, Example A94]
IC50 [1]: in the range around 550 nM
IC50 [3]: in the range around 550 nM

Structure (SMILES): CCn1c(-c2cccnc2COC)c2c3cc(ccc31)-c1cc(O)cc(c1)C[C@H](NC(=O)[C@H](C(C)C)N(C)C(=O)[C@H]1CCN(C(=O)C#CCN3CCOCC3)C1)C(=O)N1CCC[C@H](N1)C(=O)OCC(C)(C)C2 [US11566007, Example A95]
IC50 [1]: < 10 nM
IC50 [3]: < 10 nM

Structure (SMILES): CCn1c(-c2cccnc2COC)c2c3cc(ccc31)-c1cc(O)cc(c1)C[C@H](NC(=O)[C@H](C(C)C)N(C)C(=O)[C@H]1CCN(C(=O)C#CCN(C)C)C1)C(=O)N1CCC[C@H](N1)C(=O)OCC(C)(C)C2 [US11566007, Example A96]
IC50 [9]: < 10 nM
IC50 [7]: 100 to 1000 nM
IC50 [3]: < 10 nM

Structure (SMILES): CCn1c(-c2cccnc2[C@H](C)OC)c2c3cc(ccc31)-c1cc(O)cc(c1)C[C@H](NC(=O)[C@H](C(C)C)N(C)C(=O)c1nc(NC(=O)/C=C/CN(C)C)cs1)C(=O)N1CCC[C@H](N1)C(=O)OCC(C)(C)C2 [US11566007, Example A258]
IC50 [1]: in the range around 550 nM
IC50 [3]: in the range around 550 nM

Structure (SMILES): C=CC(=O)N1CC[C@H](C(=O)N(C)[C@H](C(=O)NC2C[C@@H]3CN(CCO3)c3ccc4c(c3)c(c(-c3cccnc3COC)n4CC)CC(C)(C)COC(=O)[C@@H]3CCCN(N3)C2=O)C(C)C)C1 (stereo partly specified) [US11566007, Example A318]
IC50 [3]: > 10000 nM

Structure (SMILES): C=CC(=O)N1CC[C@H](C(=O)N(C)[C@H](C(=O)N[C@H]2CC3=NN=C(O3)c3ccc4c(c3)c(c(-c3cccnc3[C@H](C)OCC)n4CC(F)(F)F)CC(C)(C)COC(=O)[C@@H]3CCCN(N3)C2=O)C(C)C)C1 [US11566007, Example A424]
IC50 [9]: in the range around 5500 nM
IC50 [1]: in the range around 550 nM
IC50 [3]: in the range around 550 nM

Next, values leading:

IC50 [1]: in the range around 55 nM
IC50 [2]: in the range around 550 nM
IC50 [3]: in the range around 55 nM
Structure (SMILES): C=CC(=O)N1CC[C@H](C(=O)N(C)[C@H](C(=O)N[C@H]2Cc3cc(O)cc(c3)-c3ccc4c(c3)c(c(-c3cccnc3COC)n4CC)CC(C)(C)COC(=O)[C@@H]3CCCN(N3)C2=O)C(C)C)C1 [US11566007, Example A16]

IC50 [2]: in the range around 55 nM
IC50 [4]: in the range around 550 nM
Structure (SMILES): C=CC(=O)N1CC[C@H](C(=O)N(C)[C@H](C(=O)N[C@H]2Cc3cc(O)cc(c3)-c3ccc4c(c3)c(c(-c3ccccc3[C@H](C)OC)n4CC)CC(C)(C)COC(=O)[C@@H]3CCCN(N3)C2=O)C(C)C)C1 [US11566007, Example A22]

IC50 [1]: in the range around 550 nM
IC50 [4]: > 10000 nM
Structure (SMILES): C=CC(=O)N1CC[C@H](C(=O)N(C)[C@H](C(=O)N[C@H]2Cc3cc(O)cc(c3)-c3ccc4c(c3)c(c(-c3ccccc3)n4CC)CC(C)(C)COC(=O)[C@@H]3CCCN(N3)C2=O)C(C)C)C1 [US11566007, Example A23]

IC50 [1]: in the range around 550 nM
IC50 [5]: > 10000 nM
Structure (SMILES): C=CC(=O)N1CC[C@H](C(=O)N(C)[C@H](C(=O)N[C@H]2Cc3cc(O)cc(c3)-c3ccc4c(c3)c(c(-c3ccccc3N3CCOCC3)n4CC)CC(C)(C)COC(=O)[C@@H]3CCCN(N3)C2=O)C(C)C)C1 [US11566007, Example A26]

IC50 [4]: in the range around 5500 nM
IC50 [5]: > 10000 nM
Structure (SMILES): C=CC(=O)N1CC[C@H](C(=O)N(C)[C@H](C(=O)N[C@H]2Cc3cc(O)cc(c3)-c3ccc4c(c3)c(c(-c3cccnc3)n4CC)CC(C)(C)COC(=O)[C@@H]3CCCN(N3)C2=O)C(C)C)C1 [US11566007, Example A45]

IC50 [1]: in the range around 550 nM
IC50 [5]: > 10000 nM
Structure (SMILES): C=CC(=O)N1CC[C@H](C(=O)N(C)[C@H](C(=O)N[C@H]2Cc3cc(O)cc(c3)-c3ccc4c(c3)c(c(-c3ccc5c(c3)OCCN5C)n4CC)CC(C)(C)COC(=O)[C@@H]3CCCN(N3)C2=O)C(C)C)C1 [US11566007, Example A50]

IC50 [1]: in the range around 550 nM
IC50 [8]: in the range around 5500 nM
IC50 [5]: > 10000 nM
Structure (SMILES): C=CC(=O)N1CC[C@H](C(=O)N(C)[C@H](C(=O)N[C@H]2Cc3cc(O)cc(c3)-c3ccc4c(c3)c(c(-c3cncnc3)n4CC)CC(C)(C)COC(=O)[C@@H]3CCCN(N3)C2=O)C(C)C)C1 [US11566007, Example A61]

IC50 [6]: in the range around 550 nM
Structure (SMILES): C=CC(=O)N1CC[C@H](C(=O)N(C)[C@H](C(=O)N[C@H]2Cc3cc(O)cc(c3)-c3ccc4c(c3)c(c(-c3cnccc3C)n4CC)CC(C)(C)COC(=O)[C@@H]3CCCN(N3)C2=O)C(C)C)C1 [US11566007, Example A77]

IC50 [6]: in the range around 5500 nM
IC50 [1]: in the range around 55 nM
IC50 [4]: in the range around 5500 nM
Structure (SMILES): C=CC(=O)N1CC[C@H](C(=O)N(C)[C@H](C(=O)N[C@H]2Cc3cc(O)cc(c3)-c3ccc4c(c3)c(c(-c3cncc(COC)c3)n4CC)CC(C)(C)COC(=O)[C@@H]3CCCN(N3)C2=O)C(C)C)C1 [US11566007, Example A83]

IC50 [8]: > 10000 nM
Structure (SMILES): C=CC(=O)N1CC[C@H](C(=O)N(C)[C@H](C(=O)N[C@H]2Cc3cc(O)cc(c3)-c3ccc4c(c3)c(c(-c3ncccc3COC)n4CC)CC(C)(C)COC(=O)[C@@H]3CCCN(N3)C2=O)C(C)C)C1 [US11566007, Example A84]
